# Data reported in ChEMBL document CHEMBL3045732, “Structural requirements for repellency: norsesquiterpenes and sesquiterpenoid derivatives of nootkatone against the Formosan subterranean termite (Isoptera: Rhinotermitidae)” (2010).
# Tested on: Coptotermes formosanus
# Assay: Insect repellant activity against Coptotermes formosanus assessed as repellency threshold concentration measured up to 24 hr by multiple-step triage method
# Type: functional
row,Compound,MEC
1,C=C(C)[C@@H]1CCC2=CC(=O)C[C@@H](C)[C@]2(C)C1 [NOOTKATONE],12.5 µg/g
2,CC1=CC(=O)C=C2C[C@H](C(C)C)CC[C@@]12C,25 µg/g
3,CC(C)[C@@H]1CC[C@@]2(C)C=CC(=O)C=C2C1,25 µg/g
4,C=C(C)[C@@H]1CC[C@@]2(C)CCC(=O)C=C2C1,6.25 µg/g
5,C=C(C)[C@@H]1CC[C@@]2(C)C(C)=CC(=O)C=C2C1,50 µg/g
6,C=C(C)[C@@H]1CC[C@]2(C)C(=CC(=O)C[C@@H]2C)C1,12.5 µg/g
7,CC(C)[C@@H]1CCC2CC(=O)C[C@@H](C)[C@]2(C)C1 (some centres not stated) [TETRAHYDRONOOTKATONE],1.56 µg/g
8,C=C(C)[C@@H]1CCC2=C[C@@H](O)C[C@@H](C)[C@]2(C)C1 [BETA-NOOTKATOL],100 µg/g
9,CC(C)[C@@H]1CC[C@]2(C)C(=CC(=O)C[C@@H]2C)C1,6.25 µg/g
10,"C=C(C)[C@@H]1CCC2CC3(C[C@@H](C)[C@]2(C)C1)OCCO3 (some centres not stated) [1,10-DIHYDRONOOTKATONE KETAL]",1.56 µg/g
11,"CC(C)[C@@H]1CCC2=CC(=O)C[C@@H](C)[C@]2(C)C1 [11,12-DIHYDRONOOTKATONE]",6.25 µg/g
12,C=C(C)[C@@H]1CCC2C[C@@H](O)C[C@@H](C)[C@]2(C)C1 (some centres not stated),50 µg/g
13,C=C(C)[C@@H]1CC[C@@]2(C)C=CC(=O)C=C2C1,25 µg/g
14,C=C(C)[C@@H]1CC[C@]2(C)CCC(=O)C=C2C1,12.5 µg/g
15,"C=C(C)[C@@H]1CCC2CC(=O)C[C@@H](C)[C@]2(C)C1 (some centres not stated) [1,10-DIHYDRONOOTKATONE]",1.56 µg/g
16,"CC(C)[C@@H]1CCC2=CC(=O)C[C@H](C)[C@@]2(C)C1 [4BETA,5BETA-1,10-DIHYDRONOOTKATONE]",3.25 µg/g
17,CC(C)[C@@H]1CCC2CC3(C[C@@H](C)[C@]2(C)C1)OCCO3 (some centres not stated) [TETRAHYDRONOOTKATONE KETAL],1.56 µg/g
